Results published in patent publication US10065937B2, “FLT3 receptor antagonists” (INSERM (INSTITUT NATIONAL DE LA SANTÉ ET DE LA RECHERCHE …, priority 2014, dated 2018).

Tests used:
SNAP tagged-FLT3 = molecular target: T1, SNAP tagged-FLT3 (Homo sapiens, UniProt P36888); test: Tag-lite competition binding assay (Red-FL displacement, HTRF); conditions: cells expressing SNAP tagged-FLT3, 0.5 nM Red-FL
T1 construct: expressed in transfected cells
T1 sequence (P36888 27-993): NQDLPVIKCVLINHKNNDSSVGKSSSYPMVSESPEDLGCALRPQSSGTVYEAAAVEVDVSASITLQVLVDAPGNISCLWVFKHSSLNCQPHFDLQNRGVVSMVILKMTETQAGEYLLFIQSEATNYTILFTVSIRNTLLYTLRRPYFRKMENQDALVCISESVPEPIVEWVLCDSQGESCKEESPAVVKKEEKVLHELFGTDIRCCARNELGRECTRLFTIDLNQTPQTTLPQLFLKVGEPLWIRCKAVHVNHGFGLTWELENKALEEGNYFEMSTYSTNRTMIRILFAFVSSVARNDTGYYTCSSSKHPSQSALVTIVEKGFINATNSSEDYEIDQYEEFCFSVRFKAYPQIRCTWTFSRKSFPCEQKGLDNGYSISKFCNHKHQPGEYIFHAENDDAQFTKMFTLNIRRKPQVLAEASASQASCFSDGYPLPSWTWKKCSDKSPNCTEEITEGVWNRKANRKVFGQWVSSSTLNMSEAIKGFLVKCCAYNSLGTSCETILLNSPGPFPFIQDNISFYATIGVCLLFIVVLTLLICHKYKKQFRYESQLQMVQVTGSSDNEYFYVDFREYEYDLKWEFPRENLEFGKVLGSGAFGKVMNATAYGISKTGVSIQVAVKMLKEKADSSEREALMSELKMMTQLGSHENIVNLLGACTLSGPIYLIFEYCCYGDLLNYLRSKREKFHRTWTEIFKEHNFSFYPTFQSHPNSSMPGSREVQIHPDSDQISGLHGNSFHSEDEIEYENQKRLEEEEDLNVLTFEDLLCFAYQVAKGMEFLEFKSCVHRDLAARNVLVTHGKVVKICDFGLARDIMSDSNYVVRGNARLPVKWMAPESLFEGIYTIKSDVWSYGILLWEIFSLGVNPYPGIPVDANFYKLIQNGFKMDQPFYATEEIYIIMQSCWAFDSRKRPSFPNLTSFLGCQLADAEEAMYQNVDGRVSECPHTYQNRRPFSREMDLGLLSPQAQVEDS
Description: Covalent Labeling of Cells Expressing the SNAP Tagged-FLT3
Labelling of Adherent Cells
Cell culture medium was removed from the 96 well plates and 100 nM of SNAP-Lumi4 Tb previously diluted in the Tag-lite labelling medium, was added under 100 μl per well, and further incubated 1 h at 37° C. under 5% CO2. The excess of SNAP-Lumi4-Tb was removed by washing each well 4 times with 100 μl of Tag-lite labelling medium.
Labelling of a Batch of Cells and Cells Freezing
After removal of the cell culture medium from a flask containing adherent cells, 5 ml of Tag-lite labelling medium containing 100 nM of SNAP-Lumi4-Tb was added to the flask and incubated for 1 h at 37° C. under 5% CO2. The excess of SNAP-Lumi4-Tb was removed by washing each flask 4 times with 5 ml of Tag-lite labelling medium. Cells were detached, pelleted by centrifugation (5 min at 1,300 rpm) and suspended in a cell culture medium containing 10% DMSO. Then, cells were distributed at 5 millions cells per vial and slowly frozen to −80° C. in isopropanol then transferred in liquid nitrogen for storage.
Prior to their use, the frozen cells were thawed quickly at 37° C., the medium was removed from the vials and the cells were suspended in the Tag-lite labelling medium at a cell-density of 1 million cells/ml.
Tag-lite binding assays were performed 24 h after transfection on fresh cells. When using frozen cells, binding assays were carried out immediately after cells thawing. When the assay was carried out on adherent cells in 96-well plates, the cell density was 50,000 cells per well, while a density of 10,000 cells per well was used to carry out binding assays in suspension in 384-well small volume plates.
Competition Binding Assay
Both Red-FL and the compounds to be tested were diluted in Tag-lite labelling medium. Cells were incubated with 0.5 nM Red-FL in the presence of increasing concentrations of compounds to be tested. In the plates containing labelled cells, 50 μl (or 10 μl in 384-well plates) of Tag-lite labelling medium, 25 μl (or 5 μl in 384-well plates) of compounds to be tested were added and incubated for 1 h at Room temperature prior to the addition of 25 μl (or 5 μl in 384-well plates) of Red-FL. Plates were then incubated at room temperature for 4 h or overnight before signal detection.
(§1) Signal was detected using an advanced fluorescence microplate reader (RUBYstar, BMG Labtech) equipped with a HTRF optic module allowing a donor excitation at 337 nm and a signal collection both at 665 nm and 620 nm. A frequency of 20 flashes/well is selected for the laser excitation. The signal was collected both at 665 nm and 620 nm using the following time-resolved settings: delay 50 μs, integration time 400 μs. HTRF ratios were obtained by dividing the acceptor signal (665 nm) by the donor signal (620 nm) and multiplying this value by 10,000. The 10,000 multiplying factor is used solely for the purpose of easier data handling.
(§2) Data Analysis and Statistics
(§3) Kd values of the fluorescent ligand were determined from saturation curves of the specific binding using GraphPad Prism software (GraphPad Software, Inc., San Diego, Calif.). Ki values of the compounds were determined from binding competition experiments according to the Cheng and Prusoff equation. EC50 and IC50 values of the rh-FL and compounds were determined from sigmoidal dose-response curves using GraphPad Prism software (GraphPad Software, Inc., San Diego, Calif.).

FLT3 receptor = molecular target: T2, FLT3 receptor (Homo sapiens, UniProt P36888); test: Auto-phosphorylation competition assay on RS4-11 cells (HTRF); format: cell-based; conditions: RS4-11 cells expressing endogenous FLT3, 0.1 μM rh-FL; read-out: IC50, μM Autophosphorylation
T2 construct: Auto-phosphorylation assays were performed on RS4-11 cells that express endogenous FLT3 receptor; endogenous in cells; host or cells: RS4-11 cells
T2 sequence (P36888 27-993): T1 sequence (P36888 27-993)
Description: Auto-Phosphorylation Assays
Auto-phosphorylation assays were performed on RS4-11 cells that express endogenous FLT3 receptor. A density of 50,000 cells per well was used to carry out this assay in suspension in 384-well small volume plates to determine the degree of phosphorylation of FLT3. In the aim to discover antagonist compounds and to develop this assay, we were determined the efficiency of FL on RS4-11 cells.
Both rh-FL and the compounds to be tested were diluted in Tag-lite labelling medium. Cells were incubated with 0.1 μM of rh-FL in the presence of increasing concentrations of compounds to be tested. In the plates containing RS4-11 cells (5 μl/well), 5 μl of compounds to be tested were added and incubated for 1 h at Room temperature prior to the addition of 2 μl of rh-FL at 0.1 μM. After incubation of 3 minutes at room temperature of rh-FL, 4 μl of lysis buffer were added and incubated for 2 h at room temperature. A mix of anti-FLT3 and an anti-TYR-969 FLT3 antibodies labeled with Lumi4-Tb and d2 respectively (4 μl) diluted in Tag-lite labelling medium, were added on cell lysate. Plates were then incubated at room temperature for 2 h or overnight before signal detection.
as §1, §2, §3

O=S(=O)(c1cccc(-c2nc3cccc(O)c3[nH]2)c1)N1CCCCC1 [Example 8, 2-[3-(1-piperidylsulfonyl)phenyl]-3H-benzimidazol-4-ol]
IC50 (SNAP tagged-FLT3): 98 µM | IC50 (FLT3 receptor): 68 µM

O=S(=O)(c1cccc(-c2nnc(-c3cc(Cl)ccc3O)[nH]2)c1)N1CCCCC1 [Example 4, 4-chloro-2-(5-(3-(piperidin-1-ylsulfonyl)phenyl)-4H-1,2,4-triazol-3-yl)phenol]
IC50 (SNAP tagged-FLT3): 26 µM | IC50 (FLT3 receptor): 20 µM

O=C(Nc1cc(Cl)ccc1O)c1cccc(S(=O)(=O)N2CCCCC2)c1 [Example 1, N-(5-chloro-2-hydroxyphenyl)-3-(piperidin-1-ylsulfonyl) benzamide]
IC50 (SNAP tagged-FLT3): 11.8 µM | IC50 (FLT3 receptor): 58 µM

O=S(=O)(c1cccc(-c2ncc(-c3cc(Cl)ccc3O)[nH]2)c1)N1CCCCC1 [Example 5, 4-chloro-2-(2-(3-(piperidin-1-ylsulfonyl)phenyl)-1H-imidazol-5-yl)phenol]
IC50 (SNAP tagged-FLT3): 33 µM | IC50 (FLT3 receptor): 17 µM

NCCCN(C1CCCCC1)S(=O)(=O)c1cccc(-c2nc3cc(Cl)ccc3o2)c1 [Example 7, N-(3-aminopropyl)-3-(5-chloro-1,3-benzoxazol-2-yl)-N-cyclohexylbenzene-1-sulfonamide]
IC50 (SNAP tagged-FLT3): 10 µM | IC50 (FLT3 receptor): 63 µM

O=C(Nc1cc(Cl)ccc1-c1nnn[nH]1)c1cccc(S(=O)(=O)N2CCCCC2)c1 [Example 9, N-[5-chloro-2-(1H-1,2,3,4-tetrazol-5-yl)phenyl]-3-(piperidine-1-sulfonyl)benzamide]
IC50 (SNAP tagged-FLT3): 175 µM | IC50 (FLT3 receptor): 148 µM

O=C(Nc1cccc(S(=O)(=O)N2CCCCC2)c1)c1cc(Cl)ccc1O [Example 10, 5-Chloro-2-hydroxy-N-[3-(piperidine-1sulfonyl)phenyl]benzamide]
IC50 (SNAP tagged-FLT3): 4.6 µM | IC50 (FLT3 receptor): 116 µM

CN(C1CCCCCC1)S(=O)(=O)c1cccc(C(=O)Nc2cc(Cl)ccc2O)c1 [Example 11, N-(5-chloro-2-hydroxyphenyl)-3-[cycloheptyl(methyl)sulfamoyl]benzamide]
IC50 (SNAP tagged-FLT3): 27.5 µM | IC50 (FLT3 receptor): 41 µM
